Data reported in US10640545B2 (THE GOVERNORS OF THE UNIVERSITY OF ALBERTA, priority 2017, dated 2020).
Where a SMILES comes first, the peptide text is derived from it. [ ]: non-standard residue; d: D form. Phe(4-Br) = N[C@@H](Cc1ccc(Br)cc1)C(=O)O; NMeL = CN[C@@H](CC(C)C)C(=O)O; Nle = CCCC[C@H](N)C(=O)O; Aib = CC(C)(N)C(=O)O

Legend:
[1] = target: neprilysin (NEP) (Homo sapiens, UniProt P08473); assay: in vitro; conditions: human, pH 7.5
Procedure: (§1) This experiment compared the in vitro NEP stability of the Arg/Leu peptides of the embodiments to native apelin isoforms and their A2 substituted counterparts. Peptides were incubated with recombinant human NEP (rhNEP, Sino Biological) at 37° C. for up to 72 h, and the extent of degradation was analyzed via LC-MS because of the overlapping elution patterns of peptide fragments. […] (McKinnie, S. M. K., et al. ChemBioChem: 17, 1495-1498 (2016)). […] (Dion, N., et al., Biochem. J.: 311, 623-627 (1995); Bateman Jr., R. C., et al., J. Biol. Chem.: 264, 6151-6157 (1989); McMurray, J. J. et al., J. Med.: 371, 993-1004 (2014)).
(§2) Apelin peptides were dissolved in Milli-Q water (1 mM). Recombinant human neprilysin (rhNEP, Sino Biological) was reconstituted in Tris buffer (100 mM Tris, 100 mM NaCl, 10 μM ZnCl2, pH 7.5). To initiate the assay, rhNEP was diluted in Tris buffer (3.1 nM final concentration), and preincubated at 37° C. for 10 minutes prior to the addition of 5 μL of apelin peptide (1 mM) and 1.5 μL internal standard dansyl-Tyr-Val-Gly-OH (1 mM). Aliquots (10 μL) were removed at 0, 1, 4, 24, and 72 h, quenched with 0.1 M EDTA (10 μL), diluted to 100 μL with Milli-Q water and analyzed by LC-MS. Assays were performed in triplicate (n=3) for each time point. Integrated peak areas of the parent apelin peptide and internal standard derived from LC-MS analyses, were extracted using Mass Hunter software (version B.04.00) and compared in positive extracted ion count modus (+EIC, extracted-ion chromatogram). […] (apelin:dansyl-YVG), to the same ratio at the different assay time points. The decrease in apelin:dansyl-YVG ratio was converted to a percentage of cleaved peptide over time.
(§3) The extent of degradation was analyzed via LC-MS because of the overlapping elution patterns of peptide fragments (NEP).
(§4) Native apelin-17 (2) and apelin peptides 5, 54, 56, 57, 58 and 59 were dissolved in Milli-Q water (1 mM). Recombinant human neprilysin (rhNEP, Sino Biological) was reconstituted in Tris buffer (100 mM Tris, 100 mM NaCl, 10 μM ZnCl2, pH 7.5). To initiate the assay, rhNEP was diluted in Tris buffer (3.1 nM final concentration) and preincubated at 37° C. for 10 min prior to the addition of 5 μL of apelin peptide (1 mM) and 1.5 μL of internal standard dansyl-Tyr-Val-Gly-OH (1 mM). Aliquots (10 μL) were removed at 0, 1, 4, 24, and 72 h, quenched with 0.1 M EDTA (10 μL), diluted to 100 μL with Milli-Q water, and analyzed by LC-MS. Assays were performed in triplicate (n=3) for each time point. Integrated peak areas of the parent apelin peptide and internal standard derived from LC-MS analyses were extracted using Mass Hunter software (version B.04.00) and compared in positive extracted ion count modus (+EIC). The extent of proteolysis was determined by comparing the initial (0 h) ratio of the integrated extracted ions of the parent apelin peptide to the internal dansyl-YVG standard (apelin/dansyl-YVG) to the same ratio at the different assay time points. The decrease in apelin/dansyl-YVG ratio was converted to a percentage of cleaved peptide over time.

[2] = tested on: C57BL/6 mice; assay: Cardiac allograft vasculopathy, heterotopic heart transplant; type: in vivo; conditions: male hearts into female B6 mice, 3 mg/kg/d intraperitoneal for 4 weeks from 2 weeks after transplant
Procedure: B6 male hearts were transplanted heterotopically into […] female B6 of the recipient mice, starting 2 weeks after transplant. Synthesized apelin peptide (Apelin-NMe17A2) (11), was given by daily intraperitoneal injection (3 mg/kg/d) for 4 weeks. Female mice raise immune response against the male HY antigen, injure the coronary arteries of the transplanted heart based on Verhoeff-Van Gieson staining (FIG. 17) leading to progressive expansion of the arterial intima occluding the arterial lumen (FIG. 18).
C57BL/6J mice were purchased from Jackson Laboratories. The C57BL/6 mice subjected to surgery were 11-14 weeks old. All animal experiments were carried out according to the Canadian Council on Animal Care Guidelines. Animal protocols were approved by the Animal Care and Use Committee at the University of Alberta. Hearts from 12-14 weeks male wild-type (WT) donors were transplanted heterotopically to the abdomen of the female WT recipients. […] Cardiac allograft vasculopathy (CAV) was induced due to the presence of HY-minor histocompatibility antigen-directed, cell-mediated allo-immune response against the male donor hearts. The heart grafts were harvested six weeks after transplantation. Intima area, endothelial loss in medium to large-sized arteries, inflammatory cellular infiltration, microvasculature density and tip cell markers using Immunohistochemistry and qPCR were characterized.

[3] = target: NEP (Homo sapiens, UniProt P08473); assay: Neprilysin degradation assay (LC-MS, quantitative); conditions: 37° C.
Procedure: as §1, §2, §3, §4

Sequence of NEP (P08473 whole entry): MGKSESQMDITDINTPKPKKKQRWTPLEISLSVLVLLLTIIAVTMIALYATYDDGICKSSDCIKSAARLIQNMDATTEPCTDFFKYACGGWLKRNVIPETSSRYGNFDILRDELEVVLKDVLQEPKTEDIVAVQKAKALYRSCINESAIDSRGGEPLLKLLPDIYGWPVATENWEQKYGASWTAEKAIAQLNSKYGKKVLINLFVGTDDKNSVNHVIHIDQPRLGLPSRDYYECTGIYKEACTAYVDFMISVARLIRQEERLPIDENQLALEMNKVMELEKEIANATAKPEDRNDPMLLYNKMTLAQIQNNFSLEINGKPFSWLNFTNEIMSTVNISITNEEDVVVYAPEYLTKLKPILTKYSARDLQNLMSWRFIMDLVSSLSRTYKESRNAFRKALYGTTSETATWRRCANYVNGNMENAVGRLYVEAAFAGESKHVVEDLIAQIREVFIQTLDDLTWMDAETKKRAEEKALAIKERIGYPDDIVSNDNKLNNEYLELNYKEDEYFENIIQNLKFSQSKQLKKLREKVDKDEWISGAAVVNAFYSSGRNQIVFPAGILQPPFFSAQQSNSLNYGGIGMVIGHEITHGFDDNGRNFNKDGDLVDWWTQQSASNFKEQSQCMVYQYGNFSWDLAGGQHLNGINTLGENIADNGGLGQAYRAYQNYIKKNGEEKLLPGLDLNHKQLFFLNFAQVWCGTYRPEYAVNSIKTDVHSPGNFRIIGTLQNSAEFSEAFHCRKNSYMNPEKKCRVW
Sequence of neprilysin (NEP) (P08473 whole entry, the tested form may be a part, canonical isoform): as the sequence (P08473 whole entry) above

half-life [1]	t1/2 (rhNEP, h) ([3]; rhNEP 3.1 nM)	SMILES	transplant arteriopathy (intima/lumen of coronary arteries) [2]	in vitro NEP proteolytic stability (in words) ([3]; rhNEP, up to 72 h, LC-MS)
> 30 h	–	CCCC[C@H](NC(=O)[C@@H]1CCCN1C(=O)CNC(=O)[C@H](CCCCN)NC(=O)[C@H](Cc1c[nH]cn1)NC(=O)[C@H](CO)NC(=O)[C@H](CC(C)C)N(C)C(=O)[C@H](CCCNC(=N)N)NC(=O)[C@@H]1CCCN1C(=O)[C@H](CCCNC(=N)N)NC(=O)[C@H](CCC(N)=O)NC(=O)[C@H](CCCNC(=N)N)NC(=O)[C@H](CCCNC(=N)N)NC(=O)[C@H](Cc1ccccc1)NC(=O)[C@@H](N)CCCCN)C(=O)NC(C)(C)C(=O)N[C@@H](Cc1ccc(Br)cc1)C(=O)O [Peptide 11] (H-KFRRQRPR[NMeL]SHKGP[Nle][Aib][Phe(4-Br)]-OH; C-terminus assumed)	mitigates arteriopathy	–
–	0.4 h	CSCC[C@H](NC(=O)[C@@H]1CCCN1C(=O)CNC(=O)[C@H](CCCCN)NC(=O)[C@H](Cc1cnc[nH]1)NC(=O)[C@H](CO)NC(=O)[C@H](CC(C)C)NC(=O)[C@H](CCCNC(=N)N)NC(=O)[C@@H]1CCCN1C(=O)[C@H](CCCNC(=N)N)NC(=O)[C@H](CCC(N)=O)NC(=O)[C@H](CCCNC(=N)N)NC(=O)[C@H](CCCNC(=N)N)NC(=O)[C@H](Cc1ccccc1)NC(=O)[C@@H](N)CCCCN)C(=O)N1CCC[C@H]1C(=O)N[C@@H](Cc1ccccc1)C(=O)O [Peptide 2, reference compound]	–	degraded by NEP at rates comparable to those previously reported
